Assay results taken from PubChem BioAssay (NCI).
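Where inhibition never reached the appropriate level, the endpoint shown equals the highest concentration tested. Otherwise, values were interpolated linearly from a five-concentration, 48-hour dose response in 96-well plates. TGI is the concentration that stops growth completely.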

Legend:
Assay in all cases: NCI-60 cell line screen, 48 h
MDA-MB-435 = system: MDA-MB-435
MDA-MB-231 breast = system: MDA-MB-231 breast
RPMI-8226 leukemia = system: RPMI-8226 leukemia
MALME-3M melanoma = system: MALME-3M melanoma
COLO 205 colon = system: COLO 205 colon
SK-MEL-2 melanoma = system: SK-MEL-2 melanoma
OVCAR-5 ovarian = system: OVCAR-5 ovarian
ACHN renal = system: ACHN renal
OVCAR-4 ovarian = system: OVCAR-4 ovarian
TK-10 renal = system: TK-10 renal
CAKI-1 renal = system: CAKI-1 renal
MDA-N = system: MDA-N
RXF 393 renal = system: RXF 393 renal
UACC-62 melanoma = system: UACC-62 melanoma
UO-31 renal = system: UO-31 renal
SF-295 CNS = system: SF-295 CNS
SR leukemia = system: SR leukemia
EKVX NSCLC = system: EKVX NSCLC
SF-268 CNS = system: SF-268 CNS
NCI/ADR-RES ovarian = system: NCI/ADR-RES ovarian
HS 578T breast = system: HS 578T breast
NCI-H460 lung = system: NCI-H460 lung
HT29 colon = system: HT29 colon
DU-145 prostate = system: DU-145 prostate
U251 CNS = system: U251 CNS
M14 melanoma = system: M14 melanoma
SW-620 colon = system: SW-620 colon
HCT-15 colon = system: HCT-15 colon
HCT-116 colon = system: HCT-116 colon
SN12C renal = system: SN12C renal
T-47D breast = system: T-47D breast
SK-OV-3 ovarian = system: SK-OV-3 ovarian
SK-MEL-28 melanoma = system: SK-MEL-28 melanoma
NCI-H226 lung = system: NCI-H226 lung
SNB-75 CNS = system: SNB-75 CNS
HOP-62 NSCLC = system: HOP-62 NSCLC
SNB-19 CNS = system: SNB-19 CNS
MCF7 breast = system: MCF7 breast
OVCAR-8 ovarian = system: OVCAR-8 ovarian
PC-3 prostate = system: PC-3 prostate
KM12 colon = system: KM12 colon
NCI-H23 lung = system: NCI-H23 lung
HCC-2998 colon = system: HCC-2998 colon
LOX IMVI melanoma = system: LOX IMVI melanoma
K-562 leukemia = system: K-562 leukemia
CCRF-CEM leukemia = system: CCRF-CEM leukemia
HL-60(TB) leukemia = system: HL-60(TB) leukemia
A498 renal = system: A498 renal
UACC-257 melanoma = system: UACC-257 melanoma
MOLT-4 leukemia = system: MOLT-4 leukemia
OVCAR-3 ovarian = system: OVCAR-3 ovarian
NCI-H522 lung = system: NCI-H522 lung
IGROV1 ovarian = system: IGROV1 ovarian
SK-MEL-5 melanoma = system: SK-MEL-5 melanoma
SF-539 CNS = system: SF-539 CNS
BT-549 breast = system: BT-549 breast
HOP-92 NSCLC = system: HOP-92 NSCLC
A549 NSCLC = system: A549 NSCLC
786-0 renal = system: 786-0 renal

## CC(C)(C)OC(=O)NC(Cc1ccc(OCc2ccccc2)cc1)C(=O)NC(COCc1ccccc1)C(=O)Oc1c(Cl)c(Cl)c(Cl)c(Cl)c1Cl (configuration not stated)
MDA-MB-435
  TGI: 56.7 µM
MDA-MB-231 breast
  TGI: 27.6 µM
RPMI-8226 leukemia
  TGI: > 100 µM
MALME-3M melanoma
  TGI: 68.2 µM
COLO 205 colon
  TGI: 36.5 µM
SK-MEL-2 melanoma
  TGI: 36.6 µM
OVCAR-5 ovarian
  TGI: 67.3 µM
ACHN renal
  TGI: 76.6 µM
OVCAR-4 ovarian
  TGI: 85.3 µM
TK-10 renal
  TGI: 85.8 µM
CAKI-1 renal
  TGI: 47.4 µM
MDA-N
  TGI: 80.8 µM
RXF 393 renal
  TGI: 63.9 µM
UACC-62 melanoma
  TGI: 32.3 µM
UO-31 renal
  TGI: 30.7 µM
SF-295 CNS
  TGI: 52.4 µM
SR leukemia
  TGI: > 100 µM
EKVX NSCLC
  TGI: 82.4 µM
SF-268 CNS
  TGI: 65.6 µM
NCI/ADR-RES ovarian
  TGI: 50 µM
HS 578T breast
  TGI: 41.8 µM
NCI-H460 lung
  TGI: 36.7 µM
HT29 colon
  TGI: 69.7 µM
DU-145 prostate
  TGI: 46.8 µM
U251 CNS
  TGI: 38.1 µM
M14 melanoma
  TGI: 42.9 µM
SW-620 colon
  TGI: 73 µM
HCT-15 colon
  TGI: 33.5 µM
HCT-116 colon
  TGI: 30.1 µM
SN12C renal
  TGI: 62.4 µM
T-47D breast
  TGI: 88.5 µM
SK-OV-3 ovarian
  TGI: 46.9 µM
SK-MEL-28 melanoma
  TGI: 71.8 µM
NCI-H226 lung
  TGI: 54.5 µM
SNB-75 CNS
  TGI: > 100 µM
HOP-62 NSCLC
  TGI: 32.9 µM
SNB-19 CNS
  TGI: > 100 µM
MCF7 breast
  TGI: 48.2 µM
OVCAR-8 ovarian
  TGI: 52.6 µM
PC-3 prostate
  TGI: 40.4 µM
KM12 colon
  TGI: 39 µM
NCI-H23 lung
  TGI: 35.6 µM
HCC-2998 colon
  TGI: 40.5 µM
LOX IMVI melanoma
  TGI: 53 µM
K-562 leukemia
  TGI: > 100 µM
CCRF-CEM leukemia
  TGI: > 100 µM
HL-60(TB) leukemia
  TGI: > 100 µM
A498 renal
  TGI: 53.2 µM
UACC-257 melanoma
  TGI: 84.8 µM
MOLT-4 leukemia
  TGI: > 100 µM
OVCAR-3 ovarian
  TGI: 28.9 µM
NCI-H522 lung
  TGI: 42 µM
IGROV1 ovarian
  TGI: 41.7 µM
SK-MEL-5 melanoma
  TGI: 33.7 µM
SF-539 CNS
  TGI: 29.7 µM
BT-549 breast
  TGI: 38.3 µM
HOP-92 NSCLC
  TGI: 32.8 µM
A549 NSCLC
  TGI: 89.7 µM

## CN(C)c1ccc(C2SCC(=O)N2c2nc3cc4sc(N5C(=O)CSC5c5ccc(N(C)C)cc5)nc4cc3s2)cc1 (configuration not stated)
MDA-MB-435
  TGI: > 100 µM
MDA-MB-231 breast
  TGI: > 100 µM
RPMI-8226 leukemia
  TGI: > 100 µM
MALME-3M melanoma
  TGI: > 100 µM
COLO 205 colon
  TGI: > 100 µM
SK-MEL-2 melanoma
  TGI: > 100 µM
OVCAR-5 ovarian
  TGI: > 100 µM
ACHN renal
  TGI: > 100 µM
OVCAR-4 ovarian
  TGI: > 100 µM
TK-10 renal
  TGI: > 100 µM
CAKI-1 renal
  TGI: > 100 µM
MDA-N
  TGI: > 100 µM
RXF 393 renal
  TGI: > 100 µM
UACC-62 melanoma
  TGI: > 100 µM
UO-31 renal
  TGI: > 100 µM
SF-295 CNS
  TGI: > 100 µM
SR leukemia
  TGI: > 100 µM
EKVX NSCLC
  TGI: > 100 µM
SF-268 CNS
  TGI: > 100 µM
NCI/ADR-RES ovarian
  TGI: > 76.3 µM
HS 578T breast
  TGI: > 100 µM
NCI-H460 lung
  TGI: > 28.3 µM
HT29 colon
  TGI: > 100 µM
DU-145 prostate
  TGI: > 87.2 µM
U251 CNS
  TGI: > 100 µM
M14 melanoma
  TGI: > 100 µM
SW-620 colon
  TGI: > 100 µM
HCT-15 colon
  TGI: > 100 µM
HCT-116 colon
  TGI: > 100 µM
SN12C renal
  TGI: > 100 µM
T-47D breast
  TGI: > 100 µM
SK-OV-3 ovarian
  TGI: > 100 µM
SK-MEL-28 melanoma
  TGI: > 100 µM
NCI-H226 lung
  TGI: 73.1 µM
SNB-75 CNS
  TGI: > 100 µM
HOP-62 NSCLC
  TGI: > 100 µM
786-0 renal
  TGI: > 100 µM
SNB-19 CNS
  TGI: > 100 µM
MCF7 breast
  TGI: > 100 µM
OVCAR-8 ovarian
  TGI: > 100 µM
PC-3 prostate
  TGI: > 100 µM
KM12 colon
  TGI: > 100 µM
NCI-H23 lung
  TGI: > 100 µM
HCC-2998 colon
  TGI: > 100 µM
LOX IMVI melanoma
  TGI: > 100 µM
K-562 leukemia
  TGI: > 100 µM
CCRF-CEM leukemia
  TGI: > 100 µM
HL-60(TB) leukemia
  TGI: > 100 µM
A498 renal
  TGI: > 100 µM
UACC-257 melanoma
  TGI: > 70 µM
MOLT-4 leukemia
  TGI: > 100 µM
OVCAR-3 ovarian
  TGI: > 100 µM
NCI-H522 lung
  TGI: > 100 µM
IGROV1 ovarian
  TGI: > 100 µM
SK-MEL-5 melanoma
  TGI: > 100 µM
SF-539 CNS
  TGI: > 100 µM
BT-549 breast
  TGI: > 100 µM
HOP-92 NSCLC
  TGI: > 100 µM
A549 NSCLC
  TGI: > 100 µM
